The text below walks through data of patent US4065460A, “4,5,6,7-Tetrahydro-thieno[3,2-c]-pyridine derivatives and process for their preparation” (Parcor, priority 1975, dated 1977).

SMILES strings stand for the structures.

Test system in one data set: not listed separately
The data set can be described thus: Acute intravenous toxicity (LD50, method according to MILLER and TAINTER). The conditions noted are these: mouse, in vivo, Swiss mice, read-out: LD50 /24hrs/kg of the animal.
As for `CCOC1(C)CNCc2ccsc21` (centres unmarked) [Derivative 6, 7-Ethoxy-7-methyl-4,5,6,7-tetrahydro-thieno[3,2-c]-pyridine], the LD50 at 24 h amounted to 224 mg/kg.

For the compound `COC1c2sccc2CNC1C` (centres unmarked) [Derivative 7, 7-Methoxy-6-methyl-4,5,6,7-tetrahydro-thieno[3,2-c]-pyridine], the LD50 at 24 h is 210 mg/kg.

For `CCOC1c2sccc2CNC1C` (centres unmarked) [Derivative 8, 7-Ethoxy-6-methyl-4,5,6,7-tetrahydro-thieno[3,2-c]-pyridine], the LD50 at 24 h was found to be 129 mg/kg.

As to `COC1(C)c2sccc2CNC1C` (centres unmarked) [Derivative 9, 6,7-Dimethyl-7-methoxy-4,5,6,7-tetrahydro-thieno[3,2-c]-pyridine], the LD50 at 24 h amounted to 175 mg/kg.

With `COC1c2sccc2CNC1c1ccccc1` (centres unmarked) [Derivative 10, 7-Methoxy-6-phenyl-4,5,6,7-tetrahydro-thieno[3,2-c]-pyridine], the LD50 at 24 h came to 195 mg/kg.

The test system of a further data set is mechanical stimulation (pressure forceps at the base of the tail). The data set can be described thus: Antalgic action, mechanical stimulation method according to Haffner. The settings on record: 0.5 h; mouse, 100 mg/kg oral, after 30 min.; read-out: mean percent antalgia after 30 min. Format: in vivo. The protocol: This method comprises placing a pressure forceps at the base of the tail of a mouse and recording the number of bites self-inflicted by the animal in its endeavour to remove the forceps. The decrease of the number of bites prior to and subsequently to oral administration of the test compound at a dosage of 100 mg/kg provides a measure of the antalgic activity of the derivatives of this invention.
`CCOC1(C)CNCc2ccsc21` (centres unmarked) [Derivative 6, 7-Ethoxy-7-methyl-4,5,6,7-tetrahydro-thieno[3,2-c]-pyridine]: the inhibition in vivo at 100 mg/kg turned out to be 66%.

On to `COC1c2sccc2CNC1C` (centres unmarked) [Derivative 7, 7-Methoxy-6-methyl-4,5,6,7-tetrahydro-thieno[3,2-c]-pyridine], for which the inhibition in vivo at 100 mg/kg is 70%.

As to `CCOC1c2sccc2CNC1C` (centres unmarked) [Derivative 8, 7-Ethoxy-6-methyl-4,5,6,7-tetrahydro-thieno[3,2-c]-pyridine], the inhibition in vivo at 100 mg/kg amounted to 71%.

On to `COC1(C)c2sccc2CNC1C` (centres unmarked) [Derivative 9, 6,7-Dimethyl-7-methoxy-4,5,6,7-tetrahydro-thieno[3,2-c]-pyridine], for which the inhibition in vivo at 100 mg/kg came out at 68%.

Take `COC1c2sccc2CNC1c1ccccc1` (centres unmarked) [Derivative 10, 7-Methoxy-6-phenyl-4,5,6,7-tetrahydro-thieno[3,2-c]-pyridine]: the inhibition in vivo at 100 mg/kg amounted to 73%.

Staying with this data set, now noted: mouse, 100 mg/kg oral, after 1 hr; read-out: mean percent antalgia after 1 hr.
In the case of `CCOC1(C)CNCc2ccsc21` (centres unmarked) [Derivative 6, 7-Ethoxy-7-methyl-4,5,6,7-tetrahydro-thieno[3,2-c]-pyridine], the inhibition in vivo at 100 mg/kg is 60%.

Consider `COC1c2sccc2CNC1C` (centres unmarked) [Derivative 7, 7-Methoxy-6-methyl-4,5,6,7-tetrahydro-thieno[3,2-c]-pyridine], for which the inhibition in vivo at 100 mg/kg was 65%.

For the compound `CCOC1c2sccc2CNC1C` (centres unmarked) [Derivative 8, 7-Ethoxy-6-methyl-4,5,6,7-tetrahydro-thieno[3,2-c]-pyridine], the inhibition in vivo at 100 mg/kg stood at 65%.

For `COC1(C)c2sccc2CNC1C` (centres unmarked) [Derivative 9, 6,7-Dimethyl-7-methoxy-4,5,6,7-tetrahydro-thieno[3,2-c]-pyridine], the inhibition in vivo at 100 mg/kg is 63%.

Take `COC1c2sccc2CNC1c1ccccc1` (centres unmarked) [Derivative 10, 7-Methoxy-6-phenyl-4,5,6,7-tetrahydro-thieno[3,2-c]-pyridine]: the inhibition in vivo at 100 mg/kg is 66%.

The data set is the same for the next values; noted with them: mouse, 100 mg/kg oral, after 2 hrs; read-out: mean percent antalgia after 2 hrs.
Turning to `CCOC1(C)CNCc2ccsc21` (centres unmarked) [Derivative 6, 7-Ethoxy-7-methyl-4,5,6,7-tetrahydro-thieno[3,2-c]-pyridine], the inhibition in vivo at 100 mg/kg worked out at 55%.

For `COC1c2sccc2CNC1C` (centres unmarked) [Derivative 7, 7-Methoxy-6-methyl-4,5,6,7-tetrahydro-thieno[3,2-c]-pyridine], the inhibition in vivo at 100 mg/kg was found to be 61%.

Consider `CCOC1c2sccc2CNC1C` (centres unmarked) [Derivative 8, 7-Ethoxy-6-methyl-4,5,6,7-tetrahydro-thieno[3,2-c]-pyridine], for which the inhibition in vivo at 100 mg/kg was found to be 59%.

As to `COC1(C)c2sccc2CNC1C` (centres unmarked) [Derivative 9, 6,7-Dimethyl-7-methoxy-4,5,6,7-tetrahydro-thieno[3,2-c]-pyridine], the inhibition in vivo at 100 mg/kg came to 56%.

As for `COC1c2sccc2CNC1c1ccccc1` (centres unmarked) [Derivative 10, 7-Methoxy-6-phenyl-4,5,6,7-tetrahydro-thieno[3,2-c]-pyridine], the inhibition in vivo at 100 mg/kg is 60%.

The data set is the same for the next values; noted with them: mouse, 100 mg/kg oral, after 3 hrs; read-out: mean percent antalgia after 3 hrs.
For the compound `CCOC1(C)CNCc2ccsc21` (centres unmarked) [Derivative 6, 7-Ethoxy-7-methyl-4,5,6,7-tetrahydro-thieno[3,2-c]-pyridine], the inhibition in vivo at 100 mg/kg worked out at 48%.

As for `COC1c2sccc2CNC1C` (centres unmarked) [Derivative 7, 7-Methoxy-6-methyl-4,5,6,7-tetrahydro-thieno[3,2-c]-pyridine], the inhibition in vivo at 100 mg/kg amounted to 53%.

Take `CCOC1c2sccc2CNC1C` (centres unmarked) [Derivative 8, 7-Ethoxy-6-methyl-4,5,6,7-tetrahydro-thieno[3,2-c]-pyridine]: the inhibition in vivo at 100 mg/kg was 50%.

In the case of `COC1(C)c2sccc2CNC1C` (centres unmarked) [Derivative 9, 6,7-Dimethyl-7-methoxy-4,5,6,7-tetrahydro-thieno[3,2-c]-pyridine], the inhibition in vivo at 100 mg/kg was found to be 49%.

As for `COC1c2sccc2CNC1c1ccccc1` (centres unmarked) [Derivative 10, 7-Methoxy-6-phenyl-4,5,6,7-tetrahydro-thieno[3,2-c]-pyridine], the inhibition in vivo at 100 mg/kg was 53%.

The subject of the next data set is carrageenin-induced edema. Kind of data set: Localized carrageenin-induced edema method (anti-inflammatory action). Format: in vivo. The settings on record: Rattus norvegicus, po; rats, 100 mg/kg orally (1 hour prior, simultaneously, 1 hour and 2.5 hours after), after 1 hour; read-out: Percent anti-inflammatory activity after 1 hour. On the procedure: a. Localized carrageenin-induced edema method.
0.1 ml of a 1% carrageenin solution is injected at time 0 in the metatarsal flexor muscles of the right hind limb of rats. The animals of the treated group are administered orally, additionally, 100 mg/kg of the test derivative, respectively 1 hour prior to and then simultaneously with the phlogogenic agent, and then 1 hour and 2.5 hours thereafter. The determinations effected with a ROCH micrometer at times 0, 1 hour, 2 hrs, 3 hrs and 5 hrs after carrageenin administration make it possible to determine, as a function of time, the percent anti-inflammatory activity.
In general terms: The carrageenan paw model is a standard test of acute inflammation.
`CCOC1(C)CNCc2ccsc21` (centres unmarked) [Derivative 6, 7-Ethoxy-7-methyl-4,5,6,7-tetrahydro-thieno[3,2-c]-pyridine]: the inhibition in vivo at 100 mg/kg stood at 40%.

Consider `COC1c2sccc2CNC1C` (centres unmarked) [Derivative 7, 7-Methoxy-6-methyl-4,5,6,7-tetrahydro-thieno[3,2-c]-pyridine], for which the inhibition in vivo at 100 mg/kg amounted to 36%.

On to `CCOC1c2sccc2CNC1C` (centres unmarked) [Derivative 8, 7-Ethoxy-6-methyl-4,5,6,7-tetrahydro-thieno[3,2-c]-pyridine], for which the inhibition in vivo at 100 mg/kg amounted to 38%.

`COC1(C)c2sccc2CNC1C` (centres unmarked) [Derivative 9, 6,7-Dimethyl-7-methoxy-4,5,6,7-tetrahydro-thieno[3,2-c]-pyridine]: the inhibition in vivo at 100 mg/kg amounted to 44%.

Take `COC1c2sccc2CNC1c1ccccc1` (centres unmarked) [Derivative 10, 7-Methoxy-6-phenyl-4,5,6,7-tetrahydro-thieno[3,2-c]-pyridine]: the inhibition in vivo at 100 mg/kg is 37%.

The same data set, now with this note: Rattus norvegicus, po; rats, 100 mg/kg orally (1 hour prior, simultaneously, 1 hour and 2.5 hours after), after 2 hours; read-out: Percent anti-inflammatory activity after 2 hours.
In the case of `CCOC1(C)CNCc2ccsc21` (centres unmarked) [Derivative 6, 7-Ethoxy-7-methyl-4,5,6,7-tetrahydro-thieno[3,2-c]-pyridine], the inhibition in vivo at 100 mg/kg stood at 49%.

For `COC1c2sccc2CNC1C` (centres unmarked) [Derivative 7, 7-Methoxy-6-methyl-4,5,6,7-tetrahydro-thieno[3,2-c]-pyridine], the inhibition in vivo at 100 mg/kg was 48%.

Consider `CCOC1c2sccc2CNC1C` (centres unmarked) [Derivative 8, 7-Ethoxy-6-methyl-4,5,6,7-tetrahydro-thieno[3,2-c]-pyridine], for which the inhibition in vivo at 100 mg/kg is 53%.

On to `COC1(C)c2sccc2CNC1C` (centres unmarked) [Derivative 9, 6,7-Dimethyl-7-methoxy-4,5,6,7-tetrahydro-thieno[3,2-c]-pyridine], for which the inhibition in vivo at 100 mg/kg amounted to 52%.

Take `COC1c2sccc2CNC1c1ccccc1` (centres unmarked) [Derivative 10, 7-Methoxy-6-phenyl-4,5,6,7-tetrahydro-thieno[3,2-c]-pyridine]: the inhibition in vivo at 100 mg/kg came out at 50%.

Still in this data set, the particulars now being: Rattus norvegicus, po; rats, 100 mg/kg orally (1 hour prior, simultaneously, 1 hour and 2.5 hours after), after 5 hours; read-out: Percent anti-inflammatory activity after 5 hours.
For `CCOC1(C)CNCc2ccsc21` (centres unmarked) [Derivative 6, 7-Ethoxy-7-methyl-4,5,6,7-tetrahydro-thieno[3,2-c]-pyridine], the inhibition in vivo at 100 mg/kg came to 61%.

`COC1c2sccc2CNC1C` (centres unmarked) [Derivative 7, 7-Methoxy-6-methyl-4,5,6,7-tetrahydro-thieno[3,2-c]-pyridine]: the inhibition in vivo at 100 mg/kg is 62%.

In the case of `CCOC1c2sccc2CNC1C` (centres unmarked) [Derivative 8, 7-Ethoxy-6-methyl-4,5,6,7-tetrahydro-thieno[3,2-c]-pyridine], the inhibition in vivo at 100 mg/kg turned out to be 61%.

Consider `COC1(C)c2sccc2CNC1C` (centres unmarked) [Derivative 9, 6,7-Dimethyl-7-methoxy-4,5,6,7-tetrahydro-thieno[3,2-c]-pyridine], for which the inhibition in vivo at 100 mg/kg stood at 62%.

Regarding `COC1c2sccc2CNC1c1ccccc1` (centres unmarked) [Derivative 10, 7-Methoxy-6-phenyl-4,5,6,7-tetrahydro-thieno[3,2-c]-pyridine], the inhibition in vivo at 100 mg/kg came out at 56%.

The next data set relates to Ovalbumin-induced systemic edema. The data set can be described thus: Ovalbumin-induced systemic edema method (anti-inflammatory action). The settings on record: Rattus norvegicus, po; rats, 100 mg/kg orally (1 hour prior and simultaneously), with respect to control group, after 2 hrs; read-out: Percent decrease of the edema reaction after 2 hrs. Type of data set: in vivo. The protocol: b. Ovalbumin-induced systemic edema method
Rats are administered a simultaneous intraperitoneal injection of 1 ml ovalbumin and 0.5 ml of a 1% Evans Blue solution. The animals of the treated group are additionally administered orally 100 mg/kg of the test derivative, one hour prior to ovalbumin administration and then simultaneously with said ovalbumin administration. The intensity of the phenomenon thus induced is rated according to a scale from 1 to 5, according to the progress of the inflammatory syndrome. The measurements are effected after 2 hours and after 3 hours. Thus are determined the mean intensity of the edema and the percent decrease of the edema reaction with respect to the control group.
With `CCOC1(C)CNCc2ccsc21` (centres unmarked) [Derivative 6, 7-Ethoxy-7-methyl-4,5,6,7-tetrahydro-thieno[3,2-c]-pyridine], the inhibition in vivo at 100 mg/kg is 44%.

In the case of `COC1c2sccc2CNC1C` (centres unmarked) [Derivative 7, 7-Methoxy-6-methyl-4,5,6,7-tetrahydro-thieno[3,2-c]-pyridine], the inhibition in vivo at 100 mg/kg worked out at 47%.

In the case of `CCOC1c2sccc2CNC1C` (centres unmarked) [Derivative 8, 7-Ethoxy-6-methyl-4,5,6,7-tetrahydro-thieno[3,2-c]-pyridine], the inhibition in vivo at 100 mg/kg is 44%.

As to `COC1(C)c2sccc2CNC1C` (centres unmarked) [Derivative 9, 6,7-Dimethyl-7-methoxy-4,5,6,7-tetrahydro-thieno[3,2-c]-pyridine], the inhibition in vivo at 100 mg/kg stood at 50%.

With `COC1c2sccc2CNC1c1ccccc1` (centres unmarked) [Derivative 10, 7-Methoxy-6-phenyl-4,5,6,7-tetrahydro-thieno[3,2-c]-pyridine], the inhibition in vivo at 100 mg/kg came out at 48%.

The same data set, now with this note: Rattus norvegicus, po; rats, 100 mg/kg orally (1 hour prior and simultaneously), with respect to control group, after 3 hrs; read-out: Percent decrease of the edema reaction after 3 hrs.
Consider `CCOC1(C)CNCc2ccsc21` (centres unmarked) [Derivative 6, 7-Ethoxy-7-methyl-4,5,6,7-tetrahydro-thieno[3,2-c]-pyridine], for which the inhibition in vivo at 100 mg/kg stood at 58%.

Take `COC1c2sccc2CNC1C` (centres unmarked) [Derivative 7, 7-Methoxy-6-methyl-4,5,6,7-tetrahydro-thieno[3,2-c]-pyridine]: the inhibition in vivo at 100 mg/kg is 58%.

Turning to `CCOC1c2sccc2CNC1C` (centres unmarked) [Derivative 8, 7-Ethoxy-6-methyl-4,5,6,7-tetrahydro-thieno[3,2-c]-pyridine], the inhibition in vivo at 100 mg/kg is 56%.

For the compound `COC1(C)c2sccc2CNC1C` (centres unmarked) [Derivative 9, 6,7-Dimethyl-7-methoxy-4,5,6,7-tetrahydro-thieno[3,2-c]-pyridine], the inhibition in vivo at 100 mg/kg was 63%.

For `COC1c2sccc2CNC1c1ccccc1` (centres unmarked) [Derivative 10, 7-Methoxy-6-phenyl-4,5,6,7-tetrahydro-thieno[3,2-c]-pyridine], the inhibition in vivo at 100 mg/kg worked out at 57%.
